According to paper PMC7571299 (ACS Pharmacology & Translational Science, 2020):
“Also recorded” adds a separate entry of the source. Where two headings read alike, the source gives them in different places.

Experiments:
[1] = system: SARS-CoV-2 Isolate USA-WA1/2020; assay: Vero E6 cell assay; format: cell-based
SARS-CoV-2 [2] = format: cell-based
Vero E6 cells = details: Vero E6, absence of virus, UTHSC
[3] = cited from earlier work
SARS-CoV-2 [4] = format: cell-based; remark: listed apart in the source
SARS-CoV-2 [5] = details: cited from earlier work; for Activity in NCATS CPE experiments: NCATS HTS

Row | Structure (SMILES) | Reduction of virus titer (SARS-CoV-2 [4]) | Activity in NCATS CPE experiments (SARS-CoV-2 [5]) | further results
1 | CCNCc1cc(Nc2ccnc3cc(Cl)ccc23)ccc1O [N-monodesethyl amodiaquine] |  |  | Antiviral activity compared to chloroquine [1]: almost inactive; EC50 (SARS-CoV-2 [2]): 4 µM; CC50 (Vero E6 cells): 5.9 µM; half-life [3]: ~20.8 days; half-life ([3]; human, in vivo): over 3 weeks
2 | Nc1c(Br)cc(Br)cc1CN[C@H]1CC[C@H](O)CC1 [ambroxol] | inactive; also recorded: Neither primaquine nor ambroxol were found to reduce the virus titer | low activity | 
3 | CCN(CC)Cc1cc(Nc2ccnc3cc(Cl)ccc23)ccc1O [amodiaquine] |  | high activity | half-life [3]: 0.12 days
4 | CN(Cc1cc(Br)cc(Br)c1N)C1CCCCC1 [bromhexine] |  | found active | EC50 (SARS-CoV-2 [5]; read-out: EC50 in CPE assay, NCATS): 13.9 µM
5 | CCN(CC)CCCC(C)Nc1ccnc2cc(Cl)ccc12 (centres unmarked) [chloroquine] | did not reduce the virus titer |  | 
6 | O=C(OCC(O)CO)c1ccccc1Nc1ccnc2cc(Cl)ccc12 (centres unmarked) [glafenine] |  | low activity | 
7 | CC(COc1ccccc1)NC(C)C(O)c1ccc(O)cc1 (centres unmarked) [isoxsuprine] |  | low activity | 
8 | OC(CNCC(O)C1CCc2cc(F)ccc2O1)C1CCc2cc(F)ccc2O1 (centres unmarked) [nebivolol] | more than 1 log units | poor activity | 
9 | Cc1[nH]c2ccccc2c1CCNCc1ccc(/C=C/C(=O)NO)cc1 [panobinostat] |  | low activity | 
10 | CCCCc1nc2cc(/C=C/C(=O)NO)ccc2n1CCN(CC)CC [pracinostat] |  | low activity | 
11 | COc1cc(NC(C)CCCN)c2ncccc2c1 (centres unmarked) [primaquine] | Neither primaquine nor ambroxol were found to reduce the virus titer |  | Antiviral activity in dose-response experiment in comparison with chloroquine [1]: no appreciable activity; Antiviral activity at the tested concentrations (SARS-CoV-2 [2]; UTHSC dose response): did not exhibit appreciable activity
12 | CCC(CC)COC(=O)[C@H](C)N[P@](=O)(OC[C@H]1O[C@@](C#N)(c2ccc3c(N)ncnn23)[C@H](O)[C@@H]1O)Oc1ccccc1 [remdesivir] | 3–4 log units |  | 
13 | O=C(CCCCCCC(=O)Nc1ccccc1)NO [vorinostat] |  | low activity | 
14 | OCCN1CCN(CC/C=C2/c3ccccc3Sc3ccc(Cl)cc32)CC1 [zuclopenthixol] | more than 1 log unit |  | Peak of activity (SARS-CoV-2 [2]; 8.33 μM, UTHSC): 80%; bioavailability ([3]; listed as ZPX): about 50%
